Test results taken from patent US20240239765A1, “GLYCINE N-METHYLTRANSFERASE SPECIFIC ENHANCER AND PREPARATION METHOD AND USES THEREOF” (KAOHSIUNG MEDICAL UNIVERSITY, priority 2020, published 2024).

Legend:
p21 mRNA = p21 mRNA expression in Huh7 cells (qRT-PCR); type: cell-based, Human; details: after K117 treatment
Protocol: (§1) RNA was isolated by using Trizol reagent (Life Technologies) according to the manufacturer's protocol. Cellular RNA was reverse transcribed into complementary DNA using a SuperScript II RNase H-Reverse Transcriptase Kit (Life Technologies). PCR reactions were carried out using a Super Script II Reverse Transcriptase Kit (Invitrogen Inc., Carlsbad, CA, USA) on an Applied Biosystems Step-One-plus real-time PCR system (Applied Biosystems, Foster City, CA, USA). The mRNA level of TATA-box binding protein (TBP) was used as an internal control. The primer pairs used for qRT-PCR were: • TBP forward: SEQ ID NO: 1, • reverse: SEQ ID NO: 2, • MYC forward: SEQ ID NO: 3, • reverse: SEQ ID NO: 4, • p21 forward: SEQ ID NO: 5, • reverse: SEQ ID NO: 6, • p27 forward: SEQ ID NO: 7, • reverse: SEQ ID NO: 8, • GNMT forward: SEQ ID NO: 9, and • reverse: SEQ ID NO: 10.

[1] = test system: liver cancer cell lines (Huh7, Hep3B, HepG2); assay: Cell proliferation in liver cancer cell lines; type: cell-based, Human
Protocol: (§2) Huh7, HepG2, PANC1, PC3, and BxPC3 cells were seeded in 96-well plates for 24 hours and exposed to the drugs with various concentrations. AlamarBlue® was added in to the cells and further incubated for 4 hours to assess the cytotoxic effect of the tested drugs. Blank wells (without cells) containing the same amount of test substances were used for background subtraction, and the relative number of viable cells were represented as the percentage of the mean of the relative solvent controls. AlamarBlue® assay (AbD Serotec, Oxford, UK) was used to assess cell viability according to the manufacturer's instructions.

MYC protein = MYC protein in Huh7 xenograft tumors (immunoblotting); type: in vivo; details: Huh7 xenograft tumors of treated mice
Protocol: (§3) Cells or xenograft tumors were harvested for lysate preparation by using RIPA buffer containing protease inhibitor cocktail (Roche Molecular Biochemicals) and phosphatase inhibitors (10 mM Na3VO4, 1 mM NaF, 5 mM NaPPi). Protein concentrations were quantified by Bio-Rad Protein Assay (Bio-Rad) and immunoblotting was carried out as previous description (Yen et al., 2012). Anti-MYC (D84C12, Cell Signaling Technology), anti-GNMT (YMAC-Bioteck) and anti-β-actin (AC-15, Sigma-Aldrich) antibodies were used according to the descriptions in manufacturer's instructions.
All animal experiments were reviewed and approved by the Institutional Animal Care and Use Committee of Kaohsiung Medical University, and performed in accordance with relevant guidelines. Five to six-week-old male NOD-SCID mice were subcutaneously injected with Huh7 cells (1×10^6) in the right flank. Upon detection of palpable tumor, mice were randomly grouped and treated with 300 mpk, 100 mpk or 25 mpk of LKY4606D or KYT5397 and drug vehicle orally every day for 28 days. For K117, doses of 10 mpk and 25 mpk were used. For Sorafenib, dose of 25 mpk was used. Tumor growth was monitored (every day or three times per week) by measuring the length (L) and the width (W) of the tumor using Vernier caliper. Tumor volume (TV) was calculated by using the formula: volume=(L×W^2)/2. […]

PC3 = assay: Cell viability, prostate cancer cell line PC3; type: cell-based; details: Homo sapiens, PC-3
Protocol: (§4) Human liver cancer cell lines (Huh7 and HepG2), human pancreatic cancer cell line (PANC1) and prostate cancer cell line (PC3) were cultured in Dulbecco's modified Eagle's medium (DMEM) supplemented with 10% fetal bovine serum (FBS) (HyClone, Logan, UT, USA), L-glutamine (2 mM), streptomycin (100 μg/mL), penicillin (100 U/mL) and nonessential amino acids (0.1 mM). Human pancreatic cancer cell line BxPC3 was cultured in the medium of Roswell Park Memorial Institute (RPMI) 1640 with the same supplements as in DMEM. All cell lines were maintained at 37 °C in a humidified CO2 incubator. H7GPL stable cells established by lentiviral-system was grown in DMEM supplemented with 1 μg/mL puromycin. The sorafenib were purchased from Sigma-Aldrich (St Louis, MO, USA).
as §2

DU145 = assay: Cell viability, prostate cancer cell line DU145; type: cell-based; details: Homo sapiens, DU-145
GNMT mRNA = assay: Endogenous GNMT mRNA in Huh7 cells (qRT-PCR); type: cell-based, Human
Protocol: as §1

[2] = test system: −1812/+14 GNMT promoter-luciferase reporter cell line H7GPL; assay: GNMT induction capacity assay (GNMT promoter-luciferase reporter, H7GPL cells); type: cell-based, Human; details: for Relative Luciferase Activity (induction capacity): H7GPL cells
Protocol: A −1812/+14 GNMT promoter-luciferase reporter cell line H7GPL was constructed. For the primary analysis, H7GPL cells seeded in 96-well plates were treated with individual drugs of 10 μM for 24 hours and then were lysed for the luciferase activity assay using Luciferase Assay System (Promega, Madison, WI, USA). Then, the secondary analysis was performed using the compounds with different doses. The same confirmed hits were used for cytotoxicity by using alamarBlue® reagent (AbD serotec, Oxford, UK). The cytotoxicity was measured according to the manufacturer's recommendation. Top hits were used for further studies.

MYC mRNA = MYC mRNA expression in Huh7 cells (qRT-PCR); type: cell-based, Human
Protocol: as §1

BxPC3 = assay: Cell viability, pancreatic cancer cell line BxPC3; type: cell-based; details: Homo sapiens, BXPC-3; BxPC3, pancreas
Protocol: as §4, §2

GNMT protein = assay: Endogenous GNMT protein in Huh7 cells (immunoblotting); type: cell-based, Human
Protocol: as §3

Huh7 and HepG2 cells = assay: Colony formation assay; type: cell-based, Human
p27 mRNA = p27 mRNA expression in Huh7 cells (qRT-PCR); type: cell-based, Human; details: after K117 treatment
Protocol: as §1

PANC1 = assay: Cell viability, pancreatic cancer cell line PANC1; type: cell-based; details: Homo sapiens, PANC-1; PANC1, pancreas
Protocol: as §4, §2

Huh7 xenograft tumor = type: in vivo
Excerpt: All animal experiments were reviewed and approved by the Institutional Animal Care and Use Committee of Kaohsiung Medical University, and performed in accordance with relevant guidelines. Five to six-week-old male NOD-SCID mice were subcutaneously injected with Huh7 cells (1×10^6) in the right flank. Upon detection of palpable tumor, mice were randomly grouped and treated with 300 mpk, 100 mpk or 25 mpk of LKY4606D or KYT5397 and drug vehicle orally every day for 28 days. For K117, doses of 10 mpk and 25 mpk were used. For Sorafenib, dose of 25 mpk was used. Tumor growth was monitored (every day or three times per week) by measuring the length (L) and the width (W) of the tumor using Vernier caliper. Tumor volume (TV) was calculated by using the formula: volume=(L×W^2)/2. All drugs were dissolved in 0.5% carboxymethyl cellulose sodium salt.

GNMT expression / MYC = details: pathogenesis of liver cancer, known; cited from earlier work

C/C(=N\NC(=O)c1cccnc1N)c1ccccn1 [K117, N′-(1-(pyridin-2-yl)ethylidene)-2-carbohydrazide]
p21 mRNA expression (p21 mRNA): increased | Proliferation of liver cancer cells [1]: inhibited proliferation of all tested liver cancer cells in a dose-dependent manner | MYC protein expression in xenograft tumors (MYC protein): reduced | IC50 (PC3): 15.3 µM | IC50 (DU145): 40.8 µM | Endogenous GNMT expression at mRNA level (GNMT mRNA): induced | Relative Luciferase Activity (induction capacity) ([2]; 5.0 μM): 6.52 ± 0.12 | Relative Luciferase Activity (induction capacity) ([2]; 10 μM): 10.36 ± 0.35 | Induction of GNMT expression compared with K78 ([2]; SAR study): more effective than K78 | Induction of luciferase activity / GNMT promoter activity ([2]; dose response (FIG. 2B, 4B)): induced GNMT promoter activity in a dose-dependent manner | MYC mRNA expression (MYC mRNA): suppressed c-Myc mRNA expression dose-dependently | IC50 (BxPC3): 1.2 µM | Endogenous GNMT expression at protein level (GNMT protein): induced | Colony formation (Huh7 and HepG2 cells): reduced the colony formation of Huh7 and HepG2 cells in a dose-dependent manner | p27 mRNA expression (p27 mRNA): increased | IC50 (PANC1): 2.2 µM | Tumor growth versus control group (Huh7 xenograft tumor; K117 10 mpk and 25 mpk): significant tumor growth reduction | Tumor growth effect compared with Sorafenib (Huh7 xenograft tumor; K117 10 mpk vs Sorafenib 25 mpk): same effect as Sorafenib 25 mpk

O=C(OC[C@H]1O[C@@H](OC(=O)c2cc(O)c(O)c(O)c2)[C@H](OC(=O)c2cc(O)c(O)c(O)c2)[C@@H](OC(=O)c2cc(O)c(O)c(O)c2)[C@@H]1OC(=O)c1cc(O)c(O)c(O)c1)c1cc(O)c(O)c(O)c1 [PGG, 1,2,3,4,6-penta-O-galloyl-Beta-D-glucopyranoside]
GNMT expression / MYC regulation (GNMT expression / MYC): enhanced GNMT expression through MYC downregulation

CNC(=O)c1cc(Oc2ccc(NC(=O)Nc3ccc(Cl)c(C(F)(F)F)c3)cc2)ccn1 [Sorafenib, sorafenib, reference compound]
Tumor growth versus solvent control (Huh7 xenograft tumor; oral, K78 25, 100, 300 mpk, sorafenib comparison control): most significant difference
